Assay results published in a melting point compilation (Tetko et al.; mined from patent text by program, amines drawn as free bases though some values may be those of a salt).

First: COC(=O)c1ccc(OCCCCCCc2cccc(OCc3ccccc3)c2OCc2ccccc2)c(Cl)c1
Second: Cc1oc(-c2ccccc2)nc1COc1ccc(C(=O)c2ccccc2OC(C)C(=O)O)cc1 (configuration not stated)
The melting point of the first is lower: 68 to 69 °C for the first, 186 to 187 °C for the second.

First: O=C(Nc1cccc2c1C(=O)c1c-2n[nH]c1-c1ccc(C(=O)N2CCN(CCO)CC2)s1)NN1CCOCC1
Second: COc1cc2c(Nc3cccc(C)c3)ncnc2cc1OCCN1CCOCC1
The melting point of the first is higher: 186 to 187 °C for the first, 168 to 170 °C for the second.

First: O=Cc1cc2ccsc2s1
Second: CN(C)S(=O)c1nc2ccccc2s1 (configuration not stated)
The melting point of the first is lower: 43 to 45 °C for the first, 121 to 122 °C for the second.

First: COc1cc(C(C)C)c2c(c1)S(=O)(=O)N(COc1cc(C)nn1C)C2=O
Second: CCc1c(C)c(=O)oc2cc(-c3nnc(C)s3)cc(OC)c12
The melting point of the first is higher: 146 to 147 °C for the first, 135 to 138 °C for the second.

Compared with `CCCSc1nc(NC2CC2c2ccc(OC)c(C)c2)c2nnn(C3CC(O)C(O)C3O)c2n1` (configuration not stated), `COc1cc2c(cc1O)C(Cc1c(OC)cccc1[N+](=O)[O-])N(C)CC2` (configuration not stated) is higher in melting point: 135 to 136 °C for the first, 163 to 165 °C for the second.

Compared with `CS(=O)(=O)C(=C1CN(C(c2ccc(Cl)cc2)c2ccc(Cl)cc2)C1)c1cc(F)cc(F)c1`, `NS(=O)(=O)c1ccc(-c2cnn(Cc3ccc(F)c(F)c3)c(=O)c2-c2ccc(F)cc2)cc1` is higher in melting point: 200 °C for the first, 253 to 255 °C for the second.

First: COc1cc(OCc2ccccn2)ccc1/C=C/c1cc(/C=C/c2ccc3nccnc3c2)[nH]n1
Second: c1ccc(-c2cc3nccnc3[nH]2)nc1
The melting point of the first is lower: 205 to 213 °C for the first, 234 to 235 °C for the second.

First: Cn1cc(C(=O)C(C)(C)C)c(=O)c(-c2cccc(C(F)(F)F)c2)c1
Second: Cc1cc2c(NCCc3cccc(C(F)(F)F)c3)ncnc2o1
The melting point of the first is lower: 86 to 88 °C for the first, 119 °C for the second.

Compared with `CCCCC(=O)Nc1c(C)c(C)c2c(c1C)C(c1ccc(C(C)C)cc1)C(C)(C)O2` (configuration not stated), `COc1ccc(N2CCN(c3c(C)c(C)c4c(c3C)CC(C)(COC=O)O4)CC2)cc1` (configuration not stated) is higher in melting point: 106 to 107 °C for the first, 120 to 124 °C for the second.

First: CC(=O)Nc1ccc(C2=NNC(=O)C3CC23)cc1 (configuration not stated)
Second: CC(=O)Nc1ccc(OCCOCCOc2ncc(Cl)cn2)cc1
The melting point of the first is higher: 269 to 270 °C for the first, 110 °C for the second.

First: O=C(COCC(=O)Nc1ccc([N+](=O)[O-])c(C(F)(F)F)c1)Nc1ccc([N+](=O)[O-])c(C(F)(F)F)c1
Second: O=Cc1cc(Oc2ccc(C(F)(F)F)cc2Cl)ccc1[N+](=O)[O-]
The melting point of the first is higher: 137 to 138 °C for the first, 95 °C for the second.

First: COC(=O)c1ccc(-c2cccc(CO)c2)cc1
Second: O=C(O)C(=O)c1cc(F)ccc1NC(=O)c1ccc(-c2ccccc2)cc1
The melting point of the first is lower: 88 to 89 °C for the first, 204 to 206 °C for the second.

Compared with `COc1ccc(N2CCN(c3c(C)c(C)c4c(c3C)CC(C)(CO)O4)CC2)cc1` (configuration not stated), `COc1ccc(N2C(=O)C3=C(CCCC3)C2CC(=O)N2CCCCC2)cc1` (configuration not stated) is lower in melting point: 137 to 139 °C for the first, 101 to 102 °C for the second.

Compared with `COc1ccc2ccc(OS(=O)(=O)C(F)(F)F)c(-c3nnc(Cl)c4ccccc34)c2c1`, `Nc1c(Cl)nc2ccccc2c1NCc1cc(-c2ccc(F)cc2)no1` is lower in melting point: 140 °C for the first, 127 to 128 °C for the second.

First: O=C(O)c1cc(Oc2ccc(Cl)cc2)c(Cl)cc1[N+](=O)[O-]
Second: NC(=NO)c1cc2c(Oc3ccc(Cl)cc3)cncc2s1
The melting point of the first is lower: 160 to 162 °C for the first, 194 to 196 °C for the second.

First: Cn1cc(-c2cc(-c3cnc4[nH]ccc4c3)ccn2)n(-c2ccc(CC#N)cc2)c1=O
Second: COc1cc(Nc2nccc(-c3ccc(NCCC4CCCN4C)nc3)n2)cc(OC)c1OC (configuration not stated)
The melting point of the first is higher: 252 °C for the first, 176 to 177 °C for the second.

First: CN1C(=O)Cc2cc(Br)cnc21
Second: CN1Cc2c(CO)ncn2-c2ccc(F)cc2C1=O
The melting point of the first is lower: 149 °C for the first, 221 to 223 °C for the second.

First: COc1cc(CCCC2SC(=O)NC2=O)ccc1OCc1csc(-c2ccccc2)n1 (configuration not stated)
Second: CCOCC(O)COc1cccc2oc(-c3ccccc3)cc(=O)c12 (configuration not stated)
The melting point of the first is higher: 123 to 124 °C for the first, 85 to 86.5 °C for the second.

First: Cc1cccc2c(Nc3cccc(OCCN(CCCl)CCCl)c3)c3cccc(C(=O)NCCN(C)C)c3nc12
Second: CN(CCNC(=O)NCCCOc1cccc(CN2CCCCC2)c1)CCC(c1ccc(Cl)cc1)c1ccccn1 (configuration not stated)
The melting point of the first is higher: 129 to 130 °C for the first, 99 to 105 °C for the second.

First: CCc1nc(Cl)c2c(-c3ccc([N+](=O)[O-])o3)nn(C)c2n1
Second: COc1ccc2ncc([N+](=O)[O-])c(Cl)c2c1
The melting point of the first is lower: 165 °C for the first, 281 to 283 °C for the second.

First: CC(C)COc1ccc(C(=O)N/C(=C\c2ccc(OCC(F)(F)F)cc2)C(=O)NCCO)cc1
Second: CCOC(=O)c1ccc(NC(=O)C=Cc2ccc3ccccc3c2)cc1
The melting point of the first is higher: 176 to 178 °C for the first, 173 to 175 °C for the second.

First: CN1C(=O)c2c(F)c(F)c(F)c(F)c2C1=O
Second: COc1ccc(C(=O)Nc2c(Cl)cncc2Cl)c2[nH]c(C(F)(F)F)nc12
The melting point of the first is lower: 132 °C for the first, 300 to 301 °C for the second.

First: CCCN(CCN1CCN(c2ccc3[nH]ccc3c2)CC1)C1CCc2ccc(O)cc2C1 (configuration not stated)
Second: O=[PH](c1ccc(N2CCCC2)cc1)c1ccc(N2CCCC2)cc1
The melting point of the first is lower: 179 to 183 °C for the first, 199 °C for the second.

First: O=C(O)c1coc(-c2ccc(Cl)c(C(=O)NCC34CC5CC(CC(C5)C3)C4)c2)n1
Second: C=CCOC(=O)c1ccc(NC(=O)c2ccc(OC)c(C34CC5CC(CC(C5)C3)C4)c2)cc1
The melting point of the first is higher: 254 to 257 °C for the first, 191 to 192 °C for the second.

Compared with `c1ccc2c(CCCc3nccc4ccccc34)nccc2c1`, `NCCCCc1c[nH]c(-c2ccc(F)cc2)c1-c1ccncc1` is higher in melting point: 96 to 97 °C for the first, 185 to 187 °C for the second.

First: NC1=NS(=O)(=O)c2sc(Cl)cc2N1
Second: CCCNC1=NS(=O)(=O)c2cc(C(F)(F)F)ccc2N1
The melting point of the first is higher: over 361 °C for the first, 241 to 243 °C for the second.

First: CCCc1cnc2c(NC(=O)c3c(Cl)cccc3Cl)cccc2c1NNC(C)=O
Second: O=c1oc(-c2cccc(Cl)c2)nc2ccccc12
The melting point of the first is higher: 223 to 226 °C for the first, 158 to 160 °C for the second.

First: O=C(O)CCCC1Cc2ccc(Cl)cc2C1=O (configuration not stated)
Second: CCCOC(=O)Nc1ccc(NCc2cc(Cl)cc(Cl)c2)cc1N
The melting point of the first is lower: 141 to 142 °C for the first, 154 to 155 °C for the second.

First: COc1ccc(-c2ocnc2-c2cc(OC)c(OC(F)(F)F)c(OC)c2)cc1N
Second: COc1ccc(-c2cccc(C(=O)NN)c2)cc1OC1CCCC1
The melting point of the first is higher: 168 to 170 °C for the first, 167 to 168 °C for the second.

Compared with `c1ccc(C2=Nc3ccccc3OC2)cc1`, `CNC1=Nc2ccc(Cl)cc2C(c2ccccc2F)=NC1` is higher in melting point: 108 to 111 °C for the first, 204 to 206 °C for the second.

First: O=C(O)C(=O)Nc1cccc([N+](=O)[O-])c1
Second: CC1(C)c2ccc([N+](=O)[O-])cc2C(NC(=O)Nc2ccccc2)C1O (configuration not stated)
The melting point of the first is higher: over 270 °C for the first, 194 to 195 °C for the second.

First: CC(/C=C/[C@H]1C[C@H]1c1ccc2c(c1)C(C)(C)CCC2(C)C)=C\C(=O)O (racemic)
Second: COc1ccc(C(=O)Nc2ccc(C(=O)O)cc2)cc1C1(C)CCCCC1
The melting point of the first is lower: 93 to 96 °C for the first, 230 to 231 °C for the second.

First: CC(C)(C)C1=CC=CC(c2ccccc2Cl)(C(C)(C)C)C1O (configuration not stated)
Second: Cc1cc(-c2ccccc2Cl)nn1C(C)(C)C(=O)N(C)C
The melting point of the first is lower: 89.5 to 91 °C for the first, 104 to 106 °C for the second.

Compared with `COc1cc(C2c3cc4c(cc3C(NC3=CC(=O)N(C)C3=O)C3COC(=O)C23)OCO4)cc(OC)c1O` (configuration not stated), `CCNc1c(OC)cc(C(=O)CS(C)(=O)=O)cc1OC` is lower in melting point: 238 to 241 °C for the first, 129 to 130 °C for the second.

First: CCOC(=O)C1(C(=O)Nc2cc(Cl)c(Cl)cc2C)CC1
Second: O=C(O)c1cc2cc(Cl)ccc2nc1N[C@@H](Cc1ccc(Cl)cc1)C(=O)O
The melting point of the first is lower: 105 to 107 °C for the first, 163 to 168 °C for the second.

First: CC(=O)Oc1ccccc1C(=O)NC(Oc1ccc2ccccc2c1)C(Cl)(Cl)Cl (configuration not stated)
Second: CC(=O)Oc1cc2oc(=O)cc(CSc3ccccc3C(=O)O)c2cc1OC(C)=O
The melting point of the first is lower: 158 to 160 °C for the first, 216 to 218 °C for the second.

Compared with `Cc1cc2nc3c(nc2cc1[N+](=O)[O-])SC(C#N)=C(C#N)S3`, `C#CCCCOc1c(C)cc(-c2noc(C)n2)cc1C` is lower in melting point: 155 to 157 °C for the first, 41.5 to 43 °C for the second.

Compared with `O=[N+]([O-])c1c(O)ccnc1O`, `NC(=O)NN=C(CCl)COc1ccc(Cl)cn1` is lower in melting point: over 230 °C for the first, 115 to 117 °C for the second.

Compared with `COc1ccc(CCNC(=O)N(OC(C)=O)C(C)(C)C)cc1OC`, `CC(C)C(=O)O[C@H]1[C@H](C)OC(=O)[C@@H](NC(=O)OC(C)(C)C)COC(=O)[C@@H]1Cc1ccccc1` is higher in melting point: 123 to 125 °C for the first, 143 to 145 °C for the second.

First: CCCc1cn(C)c2c(=O)[nH]c(-c3cc(S(=O)(=O)N4CCN(CCCOC(=O)[C@@H](NC(=O)OC(C)(C)C)C(C)C)CC4)ccc3OCC)nc12
Second: CCOc1cc2cc(C(=O)N3CC(CCl)c4c3cc(N3C(=O)c5ccccc5C3=O)c3ncccc43)[nH]c2c(OCC)c1OCC (configuration not stated)
The melting point of the first is lower: 132 to 134 °C for the first, 189 to 191 °C for the second.

First: O=C(Nc1ccc(C#CC2(O)CN3CCC2CC3)cc1)C(F)(F)F (configuration not stated)
Second: CC1CC(C)CN(C(=O)c2ccc(Cl)cc2)C1 (configuration not stated)
The melting point of the first is higher: 222 to 223 °C for the first, 114 to 115 °C for the second.

First: CCCCCC(C)C(C)c1cc(O)c2c(c1)oc(=O)c1ccncc12 (configuration not stated)
Second: COc1cc(C(=O)O)cc2c1oc1ccccc12
The melting point of the first is lower: 122 to 123 °C for the first, 229 to 240 °C for the second.

First: CC1(C)CC(=O)N(CC(CS(=O)(=O)c2ccc(-c3ccc(F)cc3)cc2)N(O)C=O)C(=O)C1 (configuration not stated)
Second: O=C1NCCN1c1ccc(S(=O)(=O)Nc2ccc(OC(F)F)cc2)cc1
The melting point of the first is lower: 105 to 109 °C for the first, 198 to 200 °C for the second.

First: CC(C)(C)c1cc(-c2nn(Cc3cccs3)c3ncccc23)cc(C(C)(C)C)c1O
Second: Nc1ccc2c(c1)C(=Cc1cccs1)c1ccccc1-2
The melting point of the first is lower: 138 to 141 °C for the first, 143 °C for the second.

First: O=C(Nc1c(C(O)(C(F)(F)F)C(F)(F)F)ccc2ccccc12)c1ccco1
Second: CCCC[C@H](NC(=O)[C@H](CC(C)C)NC(=O)c1ccccc1C(F)(F)F)C(=O)CSCc1ccco1
The melting point of the first is higher: 228 to 229 °C for the first, 102 to 106 °C for the second.

Compared with `NC(=O)c1nnsc1NCCCCCCCCCCCCCCc1ccccc1`, `CCCCCCCCCCC=CCc1c[nH]c(C=O)c1` is lower in melting point: 79 to 81 °C for the first, 29 to 32 °C for the second.

First: Cc1nc(NC(=O)c2cnn3c(C(F)(F)F)cc(-c4ccc(C(F)(F)F)c(OCC(F)(F)F)c4)nc23)sc1S(N)(=O)=O
Second: COc1cc(N(C)C)nc(NC(=O)NS(=O)(=O)c2ccccc2CCC(F)(F)F)n1
The melting point of the first is higher: 264 °C for the first, 183 to 184 °C for the second.

First: N#CCOC(=O)c1ccc2nc3ccc(O)cc3c(=O)n2c1
Second: Cc1c(N2CCN(C=O)C(C)C2)c(F)cc2c(=O)c(C(=O)O)cn(C3CC3)c12 (configuration not stated)
The melting point of the first is higher: 260 to 262 °C for the first, 236 to 239 °C for the second.

With `COc1c(CBr)c(OC)c(CBr)c(OC)c1CBr` the melting point was 126 °C.
